Measured values published in the OPERA property sets (Mansouri et al. 2018).

| Compound | logP |
| --- | --- |
| C=CC#Cc1ccc(-c2cccs2)s1 | 5.15 |
| c1csc(-c2ccc(-c3cccs3)s2)c1 | 5.57 |
| OCC=CC#CC#Cc1ccccc1 | 2.48 |
| CC#CC#CC#CC=CC(=O)OC | 3.85 |
| CC#CC#CC#Cc1ccccc1 | 4.91 |
| CC#CC#Cc1ccc(C#CC(Cl)COC(C)=O)s1 (stereo unspecified) | 4.6 |

Other lines, results leading:

| logP | Compound |
| --- | --- |
| 3.91 | CC=CC#CC#CC#CC=CC(Cl)CO (stereo unspecified) |
| 2.09 | CC=CC#CC=C1C=CC(=O)O1 |
| 2.45 | CC=CC#CC#CC=CC(=O)OC |
| 4.76 | CC=CC#CC#Cc1ccccc1 |
| 3.09 | O=CC=CC#CC#Cc1ccccc1 |
